These molecules were tested against T1, KRAS G12D (Homo sapiens, UniProt P01116, G12D) (assay: KRAS G12D HiBit assay). Settings: AsPc-1-KRAS (G12D)-HiBit-KI cell, compound treatment for 24 hours, absolute DC50; class symbols.
T1 construct: AsPc-1-KRAS (G12D)-HiBit-KI cell (Pharmaron); host or cells: AsPc-1-KRAS (G12D)-HiBit-KI cells (HiBiT knock-in at the endogenous KRAS locus)
Type: cell-based
Procedure: Day 1. […] Allowed cells to reach approximately 80% confluence before splitting. Rinsed cultivated cells in T-75 flasks with 5 mL PBS (Solarbio, P1020-500). […] Inactivated trypsin by adding excessive serum containing medium. Harvested the cells from flask into cell culture medium and counted the cell number.
Day 2. Test compounds were dissolved at 0.3 mM in DMSO (Solarbio, D8371) as stock solution. […] Performed 3-fold, 10-points dilution via transferring 15 μL compound into 30 μL DMSO by using TECAN liquid handler (TECAN, Freedom EVO200).
Day 3. After compound treatment for 24 hours, removed the plate from incubators and equilibrated at room temperature for 15 minutes. Prepared the HiBit reagent (Promega, N3040) by mixing 10 mL of Nano-Glo®-HiBiT Lytic Buffer with 200 μL of Nano-Glo®-HiBiT Lytic Substrate and 100 μL of LgBiT Protein. Added 20 μL of HiBit reagent into each well of the cell plate and spun the plates at room temperature at 1,000 RPM for 1 minute.
The inhibition activity was calculated using the following formula:
[formula] where HC (high control) is obtained from cells treated with 0.1% DMSO only.

T1 sequence (P01116 1-188 isoform P01116-2 G12D): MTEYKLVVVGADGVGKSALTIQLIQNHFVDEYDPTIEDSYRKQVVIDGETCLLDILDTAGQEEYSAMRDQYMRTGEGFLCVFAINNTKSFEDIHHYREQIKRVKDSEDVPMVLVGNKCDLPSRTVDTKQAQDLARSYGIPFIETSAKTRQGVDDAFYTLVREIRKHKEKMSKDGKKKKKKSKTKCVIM

DC50 | SMILES
> 300 nM | C#Cc1c(F)ccc2cccc(-c3ncc4c(N5CCC[C@@](C)(O)C5)nc(OCC5(CN6CCN(CC7CCN(c8ccc9c(c8)n(C)c(=O)n9C8CCC(=O)NC8=O)CC7)CC6)CC5)nc4c3F)c12 (some centres unmarked) [Compound 24]
> 300 nM | C#Cc1c(F)ccc2cccc(-c3ncc4c(N5CCC[C@@](C)(O)C5)nc(OCC5(CN6CCC(CN7CCN(c8ccc9c(c8)n(C)c(=O)n9C8CCC(=O)NC8=O)CC7)CC6)CC5)nc4c3F)c12 (some centres unmarked) [Compound 26]
> 300 nM | C#Cc1c(F)ccc2cccc(-c3ncc4c(N5CCC[C@@](C)(O)C5)nc(OCC5(CN6CCN(CCN7CCN(c8ccc9c(c8)n(C)c(=O)n9C8CCC(=O)NC8=O)CC7)CC6)CC5)nc4c3F)c12 (some centres unmarked) [Compound 27]
> 300 nM | C#Cc1c(F)ccc2cccc(-c3ncc4c(N5CCC[C@@](C)(O)C5)nc(OCC5(CN6CCC(N7CCN(c8ccc9c(c8)n(C)c(=O)n9C8CCC(=O)NC8=O)CC7)CC6)CC5)nc4c3F)c12 (some centres unmarked) [Compound 29]
< 100 nM | C#Cc1c(F)ccc2cc(O)cc(-c3ncc4c(N5CCC[C@@](C)(O)C5)nc(OCC5(CN6CCC(N7CCN(c8ccc9c(c8)n(C)c(=O)n9C8CCC(=O)NC8=O)CC7)CC6)CC5)nc4c3F)c12 (some centres unmarked) [Compound 30]
> 300 nM | C#Cc1c(F)ccc2cccc(-c3ncc4c(N5CCC[C@@](C)(O)C5)nc(OCC5(CN6CCC7(CC6)CC(N6CCC(c8ccc9c(C%10CCC(=O)NC%10=O)nn(C)c9c8)CC6)C7)CC5)nc4c3F)c12 (some centres unmarked) [Compound 35]
> 300 nM | C#Cc1c(F)ccc2cccc(-c3ncc4c(N5CCC[C@@](C)(O)C5)nc(OCC5(CN6CCC7(CC6)CC(N6CCC(c8ccc9c(c8)n(C)c(=O)n9C8CCC(=O)NC8=O)CC6)C7)CC5)nc4c3F)c12 (some centres unmarked) [Compound 36]
> 300 nM | C#Cc1c(F)ccc2cccc(-c3ncc4c(N5CCC[C@@](C)(O)C5)nc(OCC5(CN6CCN(Cc7ccc8c(c7)n(C)c(=O)n8C7CCC(=O)NC7=O)CC6)CC5)nc4c3F)c12 (some centres unmarked) [Compound 37]
> 300 nM | C#Cc1c(F)ccc2cccc(-c3ncc4c(N5CCC[C@@](C)(O)C5)nc(OCC5(CN6CCC(N7CCC(c8ccc9c(c8)n(C)c(=O)n9C8CCC(=O)NC8=O)CC7)CC6)CC5)nc4c3F)c12 (some centres unmarked) [Compound 39]
> 300 nM | C#Cc1c(F)ccc2cccc(-c3ncc4c(N5CCC[C@@](C)(O)C5)nc(OCC5(CN6CCC7(CC6)CC(N6CCN(c8ccc9c(c8)n(C)c(=O)n9C8CCC(=O)NC8=O)CC6)C7)CC5)nc4c3F)c12 (some centres unmarked) [Compound 41]
< 100 nM | C#Cc1c(F)ccc2cc(O)cc(-c3ncc4c(N5CCC[C@@](C)(O)C5)nc(OCC5(CN6CCN(C7CCN(c8ccc9c(c8)n(C)c(=O)n9C8CCC(=O)NC8=O)CC7)CC6)CC5)nc4c3F)c12 (some centres unmarked) [Compound 45]
< 100 nM | C#Cc1c(F)ccc2cc(O)cc(-c3ncc4c(N5CCC[C@@](C)(O)C5)nc(OCC5(CN6CCC(CN7CCN(c8ccc9c(c8)C(=O)N(C8CCC(=O)NC8=O)C9=O)CC7)CC6)CC5)nc4c3F)c12 (some centres unmarked) [Compound 46]
> 300 nM | C#Cc1c(F)ccc2cccc(-c3ncc4c(N5CCC[C@@](C)(O)C5)nc(OCC5(CN6CCC(CN7CCC(c8ccc9c(c8)n(C)c(=O)n9C8CCC(=O)NC8=O)CC7)CC6)CC5)nc4c3F)c12 (some centres unmarked) [Compound 48]
< 100 nM | C#Cc1c(F)ccc2cc(O)cc(-c3ncc4c(N5CCC[C@@](C)(O)C5)nc(OCC5(CN6CCC7(CC6)CC(N6CCC(c8ccc9c(c8)n(C)c(=O)n9C8CCC(=O)NC8=O)CC6)C7)CC5)nc4c3F)c12 (some centres unmarked) [Compound 54]
< 100 nM | C#Cc1c(F)ccc2cc(O)cc(-c3ncc4c(N5CCC[C@@](C)(O)C5)nc(OCC5(CN6CCC(N7CCC(c8ccc9c(c8)n(C)c(=O)n9C8CCC(=O)NC8=O)CC7)CC6)CC5)nc4c3F)c12 (some centres unmarked) [Compound 59]

Same assay, conditions: AsPc-1-KRAS (G12D)-HiBit-KI cell, compound treatment for 24 hours, absolute DC50; numeric bounds given in place of class symbols

DC50 | SMILES
> 100 nM | C#Cc1c(F)ccc2cccc(-c3ncc4c(N5CCC[C@@](C)(O)C5)nc(OCC5(CN6CCC7(CC6)CCN(c6ccc8c(c6)n(C)c(=O)n8C6CCC(=O)NC6=O)CC7)CC5)nc4c3F)c12 (some centres unmarked) [Compound 38]
> 100 nM | C#Cc1c(F)ccc2cccc(-c3ncc4c(N5CCC[C@@](C)(O)C5)nc(OCC5(CN6CCC7(CC6)CC(N6CCC(c8cccc9c8n(C)c(=O)n9C8CCC(=O)NC8=O)CC6)C7)CC5)nc4c3F)c12 (some centres unmarked) [Compound 44]
